We go through 2 compounds from publication PMC12657321, “Pre-clinical evaluation of a potent and effective Pin1-degrading agent in pancreatic cancer” (Molecular Therapy Oncology, 2025).

Data set [1] can be described thus: Stability in aqueous buffer (1x PBS). The data set is classed as physicochemical. The note with it: 1x phosphate buffered saline, 1 μg/mL, 37°C, up to 6 h, acetonitrile quench, LC-MS/MS. The procedure: (§1) A solution of a Pin1 inhibitor was spiked into blank plasma at 1 μg/mL in various solutions, including an aqueous buffer (1× phosphate-buffered saline; Fisher Scientific, Fair Lawn, NJ), human plasma (Innovative Research Inc., Novi, MI), wild-type mouse plasma (Innovative Research Inc., Novi, MI), plasma form esterase-deficient mice (City of Hope, Duarte, CA), and plasma from Black 6-Cg mice (City of Hope, Duarte, CA).
(§2) The spiked plasma samples were incubated at 37°C for up to 6 h. At each designated time point, a 20 μL aliquot of the incubation sample was removed and quenched in 100 μL of acetonitrile. At the end of the incubation, the quenched samples were vortexed and centrifuged for 10 min at 4°C and 20,000 × g. The resulting supernatant was reconstituted and analyzed by LC-MS/MS.
(§3) Table S2. Stability half-life of agents reported in Table 1 after incubation at 37 °C in various media. Acq represents aqueous buffer composed of 1x phosphate buffered saline (Fisher Scientific, Fair Lawn, NJ); human represents human plasma (Innovative Research Inc., Novi, MI); mouse wt represents wild type mouse plasma (Innovative Research Inc., Novi, MI); mouse ES1e represents plasma form esterase deficient mice (City of Hope, Duarte, CA); mouse B6-Cg represents plasma from black 6-Cg mice (City of Hope, Duarte, CA). See Figure 1 for the chemical structures of these compounds.
(§4) Compound Acq Human Mouse Mouse ES1e Mouse

Another data set is described as follows: Human plasma stability. The data set is classed as in vitro ADME. Conditions: 37°C, up to 6 h, acetonitrile quench, LC-MS/MS. The procedure: as §1, §2, §3, §4
The nature of data set [2]: Wild-type mouse plasma stability. The note with it: 37°C, up to 6 h, acetonitrile quench, LC-MS/MS, values given in min, read-out: Stability half-life, Mouse WT (converted). The class given is in vitro ADME. Here is the method: as §1, §2, §3, §4
The nature of data set [3]: Stability in plasma from esterase-deficient (ES1e) mice. The data set is classed as in vitro ADME. The note with it: mouse, 37°C, up to 6 h, acetonitrile quench, LC-MS/MS. Here is the method:
as §1, §2, §3, §4

A short description of data set [4]: Stability in plasma from Black 6-Cg mice. The data set is classed as in vitro ADME. Conditions: Black 6-Cg (B6-Cg), mouse, 37°C, up to 6 h, acetonitrile quench, LC-MS/MS. The procedure:
as §1, §2, §3, §4

The structures appear in SMILES notation. Non-standard residues stand in square brackets, D forms with d. Residues, ends and D or L forms follow the SMILES beside them. *: point of attachment. Trp(6-Cl) = N[C@@H](Cc1c[nH]c2cc(Cl)ccc12)C(=O)O; Pip = O=C(O)[C@@H]1CCCCN1; ClAc = O=C(CCl)*

As usually defined, the half-life is the time needed for the level to fall by half in the phase considered. For `NC(=O)[C@H](Cc1c[nH]c2ccccc12)NC(=O)[C@@H]1CCCCN1C(=O)[C@H](Cc1c[nH]c2cc(Cl)ccc12)NC(=O)CCl` [158H9] (ClAc-[Trp(6-Cl)]-[Pip]-Trp-NH2), the “Stability half-life, Acq (aqueous buffer)” value in data set [1] was > 5 h. For the same compound, the half-life at 1 μg/mL in “Human plasma stability” is ~3 h; in data set [2], ~0.5 h; in data set [3], > 5 h; in data set [4] it was > 5 h.
With `NC(=O)[C@H](Cc1c[nH]c2ccc(F)cc12)NC(=O)[C@@H]1CCCCN1C(=O)[C@@H]1Cc2c([nH]c3ccccc23)CN1C(=O)CCl` [164A10], in data set [1], the “Stability half-life, Acq (aqueous buffer)” value is > 5 h. Also, the half-life at 1 μg/mL in “Human plasma stability” was ~2.5 h; in data set [2], < 0.167 h; in data set [3], ~2.5 h; in data set [4] it was ~2.5 h.
